Zone of inhibition and inhibition zone (IZ) data for 13 molecules are collected here from ChEMBL document CHEMBL1144314, “Synthesis and antibacterial activity of 1-[1,2,4-triazol-3-yl] and 1-[1,3,4-thiadiazol-2-yl]-3-methylthio-6,7-dihydrobenzo[c]thiophen-4(5H)ones” (2005).

Holding throughout (assay type): functional
In one assay the test system is Staphylococcus aureus. Nature of the assay: Antimicrobial activity of the compound against Staphylococcus aureus was determined.
A further assay relates to Bacillus subtilis. Nature of the assay: Antimicrobial activity of the compound against Bacillus subtilis was determined.
In assay [1] the test system is Staphylococcus epidermidis. Nature of the assay: Antimicrobial activity against Staphylococcus epidermidis was determined.
Another assay deals with Aspergillus niger. In words: Antimicrobial activity against Aspergillus niger was determined.
The subject of another assay is Candida albicans. In words: Antimicrobial activity against Candida albicans was determined.
The test system of the next assay is Bacillus cereus. In words: Antimicrobial activity against Bacillus cereus was determined.
The next assay relates to Pseudomonas aeruginosa. In words: Antimicrobial activity against Pseudomonas aeruginosa was determined.

Turning to `CCCCn1c(S)nnc1-c1sc(SC)c2c1CCCC2=O`, the results for the Zone of inhibition (in the assay with Staphylococcus aureus; in the assay on Bacillus subtilis; in assay [1]) were 17 mm, 14 mm and 26 mm, respectively.

Regarding `CCNc1nnc(-c2sc(SC)c3c2CCCC3=O)s1`, the results for the Zone of inhibition in the assay with Aspergillus niger, with Bacillus subtilis and in the assay on Candida albicans were 8 mm, 20 mm and 13 mm, respectively.

Regarding `CCCCn1c(SC)nnc1-c1sc(SC)c2c1CCCC2=O`, the Zone of inhibition amounted to 17 mm in the assay with Staphylococcus aureus, 16 mm with Bacillus subtilis, 26 mm in assay [1] and 16 mm with Bacillus cereus.

GENTAMICIN: the inhibition zone (IZ) with Bacillus subtilis was 30 mm; in assay [1], 20 mm; with Bacillus cereus, 28 mm.

For `CSc1sc(-c2nnc(Nc3ccc([N+](=O)[O-])cc3)s2)c2c1C(=O)CCC2`, the Zone of inhibition in the assay with Aspergillus niger is 10 mm; with Bacillus subtilis it was 33 mm; in the assay with Candida albicans it was 14 mm.

Consider `COc1ccc(-n2c(S)nnc2-c2sc(SC)c3c2CCCC3=O)cc1`, for which the Zone of inhibition in the assay with Bacillus subtilis is 11 mm.

As for `C[C@@H]1[C@H](O)[C@@H](C)/C=C/C=C/C=C/C=C/C=C/C=C/C=C/[C@H](O[C@@H]2O[C@H](C)[C@@H](O)[C@H](N)[C@@H]2O)C[C@@H]2O[C@](O)(C[C@@H](O)C[C@@H](O)[C@H](O)CC[C@@H](O)C[C@@H](O)CC(=O)O[C@H]1C)C[C@H](O)[C@H]2C(=O)O` [AMPHOTERICIN B], the Zone of inhibition in the assay on Aspergillus niger and in the assay with Candida albicans was 22 mm in each case.

As to `CSc1sc(-c2nnc(SC)n2-c2ccc([N+](=O)[O-])cc2)c2c1C(=O)CCC2`, the Zone of inhibition with Staphylococcus aureus was found to be 18 mm; in the assay on Pseudomonas aeruginosa, 14 mm; with Bacillus subtilis, 21 mm; in assay [1], 24 mm; in the assay on Bacillus cereus, 12 mm.

Regarding `O=C1CN(/N=C/c2ccc([N+](=O)[O-])o2)C(=O)N1` [NITROFURANTOIN], the Zone of inhibition in the assay with Staphylococcus aureus is 21 mm; in the assay with Pseudomonas aeruginosa it was 21 mm; with Bacillus subtilis, 18 mm; in the assay with Bacillus cereus, 20 mm.

Regarding `CSc1sc(-c2nnc(NC3CCCCC3)s2)c2c1C(=O)CCC2`, the Zone of inhibition in the assay on Aspergillus niger stood at 12 mm.

Take `CCCCNc1nnc(-c2sc(SC)c3c2CCCC3=O)s1`: the Zone of inhibition in the assay with Aspergillus niger is reported as 9 mm; in the assay with Bacillus subtilis, 22 mm; in the assay with Candida albicans, 11 mm.

With `CSc1sc(-c2nnc(S)n2-c2ccc([N+](=O)[O-])cc2)c2c1C(=O)CCC2`, the Zone of inhibition in the assay on Staphylococcus aureus worked out at 18 mm; in the assay with Pseudomonas aeruginosa it was 14 mm; in the assay on Bacillus subtilis, 23 mm; in assay [1], 25 mm.

`CNc1nnc(-c2sc(SC)c3c2CCCC3=O)s1`: the Zone of inhibition was determined as 11 mm in the assay with Aspergillus niger, 28 mm in the assay with Bacillus subtilis and 12 mm in the assay on Candida albicans.
